Data on three compounds can be found in article PMC7725824, “Fused isoselenazolium salts suppress breast cancer cell growth by dramatic increase in pyruvate-dependent mitochondrial ROS production” (Scientific Reports, 2020).

Data set [1] concerns MCF-7. The experiment in a line: Cytotoxicity assay (MTT), MCF-7. The format is cell-based, human. Conditions: for IC50: Homo sapiens, MCF7, breast cancer cell line, MTT, 48 h, mean ± S.D., 3 experiments, read-out: Cytotoxicity, IC50, MCF-7. The procedure:
(§1) MCF-7 (human breast adenocarcinoma, estrogen-positive) and 4T1 (mouse carcinoma), as breast cancer cell lines, and H9C2 (rat cardiomyoblasts), NIH 3T3 (mouse fibroblasts), HEKa (primary human epidermal keratinocytes), MDCK (Madin-Darby Canine Kidney) cells, and A7r5 (rat vascular smooth muscle cells), as normal cell lines, were obtained from the American Type Culture Collection [ATCC] collection for use in the current study. All cell lines were cultured in Dulbecco's modified Eagle's medium (DMEM) containing 10% fetal bovine serum (FBS) and 4 mM L-glutamine at 37 °C and 5% CO2.
(§2) Cell viability was assessed by the addition of 3-(4,5-dimethylthiazol-2-yl)-2,5-diphenyltetrazolinium bromide (MTT). Briefly, cells were seeded (2–6 × 10^4 cells/ml) in 96-well plates and allowed to attach for 24 h. Solutions of test compounds were prepared and serially diluted to obtain the appropriate concentrations. The cells were treated with the test compounds at different concentrations (0.032–100 µM) and incubated for 48 h at 37 °C and 5% CO2. Then, the culture medium was removed, and medium containing 0.2 mg/ml MTT was added. After 3 h (37 °C, 5% CO2), the MTT-containing medium was removed, and 200 μl of dimethyl sulfoxide (DMSO) was immediately added to each sample. The absorbance was assessed at 540 nm using a Tecan multiplate reader Infinite 1000 (Austria). The half-maximal inhibitory concentration (IC50) of each compound was calculated using Graph Pad Prism 3.0.

Data set [2] has as its system 4T1. The experiment in a line: Cytotoxicity assay (MTT), 4T1. The format is cell-based, mouse. Conditions: Mus musculus, 4T1; breast cancer cell line; MTT, 48 h; mean ± S.D., 3 experiments; read-out: Cytotoxicity, IC50, 4T1. As for the experimental part: as §1, §2
Data set [3] can be described thus: Cytotoxicity assay (MTT), MDCK. It counts as cell-based, Canine. Conditions: dog, MDCK cells, normal cell line, mean ± S.D., 3 experiments. As for the experimental part: as §1, §2
Data set [4] can be described thus: Cytotoxicity assay (MTT), HEKa. The format is cell-based, human. Conditions: human, HEKa cells (primary epidermal keratinocytes), normal cell line, mean ± S.D., 3 experiments. As for the experimental part: as §1, §2
Data set [5] is described as follows: Cytotoxicity assay (MTT), 3T3. The format is cell-based, mouse. Conditions: mouse, NIH 3T3 cells (fibroblasts), normal cell line, mean ± S.D., 3 experiments. As for the experimental part: as §1, §2
Data set [6] in a line: Cytotoxicity assay (MTT), A7r5. The format is cell-based, rat. Conditions: rat, A7r5 cells (vascular smooth muscle cells), normal cell line, mean ± S.D., 3 experiments. The procedure:
as §1, §2

The nature of data set [7]: Cytotoxicity assay (MTT), H9C2. Conditions: rat, H9C2 cells (cardiomyoblasts); normal cell line; MTT, 48 h; mean ± S.D., 3 experiments. It counts as cell-based, rat. As for the experimental part:
as §1, §2

The structures appear in SMILES notation.

One may read the IC50 as the concentration that gives 50% inhibition. Take `OC(c1ccccc1)(c1ccccc1)c1[se][n+]2ccccc2c1Br` [Compound 2, 3-bromo-2-(hydroxydiphenylmethyl)-[1,2]selenazolo[2,3-a]pyridin-8-ium]: the IC50 in data set [1] was determined as 390 ± 30 nM; in data set [2], 1100 ± 80 nM. Besides, the IC50 at 48 h in data set [3] was 6270 ± 290 nM; in data set [4], 2780 ± 80 nM; in data set [5] it was 1600 ± 300 nM; in data set [6], 1870 ± 260 nM; in data set [7], 4200 ± 300 nM.

With `Cc1cc[n+]2[se]c(C3(O)CCCCC3)c(Br)c2c1` [Compound 4, 3-bromo-2-(1-hydroxycyclohexyl)-5-methyl-[1,2]selenazolo[2,3-a]pyridin-8-ium], the IC50 in data set [1] stood at 1480 ± 40 nM; in data set [2], 450 ± 20 nM. Moreover, the IC50 at 48 h in data set [3] came out at 2540 ± 570 nM; in data set [4], 2050 ± 50 nM; in data set [5], 790 ± 20 nM; in data set [6] it was 1930 ± 160 nM; in data set [7], 2900 ± 100 nM.

Turning to `OC1(c2[se][n+]3ccccc3c2Br)CCCCCC1.[Br-]` [Compound 5, 3-Bromo-2-(1-hydroxycycloheptyl)-[1,2]selenazolo[2,3-a]pyridinium bromide], the results for the IC50 in data set [1] and in data set [2] were 290 ± 10 nM and 410 ± 50 nM, respectively. The “increase of cytotoxicity against MCF-7 cells” value in data set [1] (cycloheptyl (5) versus cyclohexyl (4)) was “approximately 3 times”. Moreover, the 50% inhibitory concentration (IC50) at 48 h in data set [3] stood at 1510 ± 370 nM; in data set [4], 2010 ± 80 nM; in data set [5] it was 980 ± 30 nM; in data set [6] it was 1920 ± 440 nM; in data set [7], 9300 ± 200 nM.
